Source: patent publication US9975895B2, “Substituted pyrimidinium compounds and derivatives for combating animal pests” (BASF SE, priority 2013, dated 2018)

Columns and labels:
Assay type in all cases: in vivo
[1] = system: Tobacco budworm (Heliothis virescens); assay: Tobacco budworm control, 96-well microtiter plates with insect diet and eggs; conditions: 120 h, egg and larval mortality after 5 days, read-out: mortality in comparison with untreated controls
Procedure: For evaluating control of tobacco budworm (Heliothis virescens) the test unit consisted of 96-well-microtiter plates containing an insect diet and 15-25 H. virescens eggs.
The compounds were formulated using a solution containing 75% v/v water and 25% v/v DMSO. Different concentrations of formulated compounds were sprayed onto the insect diet at 10 μl, using a custom built micro atomizer, at two replications.
After application, microtiter plates were incubated at about 28±1° C. and about 80±5% relative humidity for 5 days. Egg and larval mortality was then visually assessed.

[2] = system: Vetch aphid (Megoura viciae); assay: Vetch aphid control through contact or systemic means, broad bean leaf disks; conditions: foliar, 120 h, adult aphids on treated leaf disks, 5 days, read-out: mortality in comparison with untreated controls
Procedure: For evaluating control of vetch aphid (Megoura viciae) through contact or systemic means the test unit consisted of 24-well-microtiter plates containing broad bean leaf disks.
The compounds were formulated using a solution containing 75% v/v water and 25% v/v DMSO. Different concentrations of formulated compounds were sprayed onto the leaf disks at 2.5 μl, using a custom built micro atomizer, at two replications.
After application, the leaf disks were air-dried and 5-8 adult aphids placed on the leaf disks inside the microtiter plate wells. The aphids were then allowed to suck on the treated leaf disks and incubated at about 23±1° C. and about 50±5% relative humidity for 5 days. Aphid mortality and fecundity was then visually assessed.

[3] = system: Green peach aphid (Myzus persicae); assay: Green peach aphid control through systemic means, artificial diet under membrane; conditions: 72 h, adult aphids on treated diet, 3 days, read-out: mortality in comparison with untreated controls
Description: For evaluating control of green peach aphid (Myzus persicae) through systemic means the test unit consisted of 96-well-microtiter plates containing liquid artificial diet under an artificial membrane.
The compounds were formulated using a solution containing 75% v/v water and 25% v/v DMSO. Different concentrations of formulated compounds were pipetted into the aphid diet, using a custom built pipetter, at two replications.
After application, 5-8 adult aphids were placed on the artificial membrane inside the microtiter plate wells. The aphids were then allowed to suck on the treated aphid diet and incubated at about 23±1° C. and about 50±5% relative humidity for 3 days. Aphid mortality and fecundity was then visually assessed.

[4] = system: Orchid thrips (Dichromothrips corbetti); assay: Orchid thrips floral-immersion bioassay; conditions: adult thrips, 72 hours after treatment, read-out: mortality in comparison with untreated controls
Procedure: Dichromothrips corbetti adults used for bioassay were obtained from a colony maintained continuously under laboratory conditions. For testing purposes, the test compound is diluted in a 1:1 mixture of acetone:water (vol:vol), plus 0.01% vol/vol Alkamuls® EL 620 surfactant. Thrips potency of each compound was evaluated by using a floral-immersion technique. Plastic petri dishes were used as test arenas. All petals of individual, intact orchid flowers were dipped into treatment solution and allowed to dry. Treated flowers were placed into individual petri dishes along with about 20 adult thrips. The petri dishes were then covered with lids. All test arenas were held under continuous light and a temperature of about 28° C. for duration of the assay. After 3 days, the numbers of live thrips were counted on each flower, and along inner walls of each petri dish. The percent mortality was recorded 72 hours after treatment.

[5] = system: Rice green leafhopper (Nephotettix virescens); assay: Rice green leafhopper, sprayed potted rice seedlings; conditions: adults on sprayed rice seedlings, after 72 hours, read-out: mortality in comparison with untreated controls
Procedure: Rice seedlings were cleaned and washed 24 hours before spraying. The active compounds were formulated in 50:50 acetone:water (vol:vol), and 0.1% vol/vol surfactant (EL 620) was added. Potted rice seedlings were sprayed with 5 ml test solution, air dried, placed in cages and inoculated with 10 adults. Treated rice plants were kept at about 28-29° C. and relative humidity of about 50-60%. Percent mortality was recorded after 72 hours.

[6] = system: Rice brown plant hopper (Nilaparvata lugens); assay: Rice brown plant hopper, sprayed potted rice seedlings; conditions: adults on sprayed rice seedlings, after 72 hours, read-out: mortality in comparison with untreated controls
Procedure: Rice seedlings were cleaned and washed 24 hours before spraying. The active compounds were formulated in 50:50 acetone:water (vol:vol) and 0.1% vol/vol surfactant (EL 620) was added. Potted rice seedlings were sprayed with 5 ml test solution, air dried, placed in cages and inoculated with 10 adults. Treated rice plants were kept at about 28-29° C. and relative humidity of about 50-60%. Percent mortality was recorded after 72 hours.

[7] = system: Boll weevil (Anthonomus grandis); assay: Boll weevil control, 96-well microtiter plates with insect diet and eggs; conditions: 120 h, egg and larval mortality after 5 days, read-out: mortality in comparison with untreated controls
Procedure: For evaluating control of boll weevil (Anthonomus grandis) the test unit consisted of 96-well-microtiter plates containing an insect diet and 5-10 A. grandis eggs.
The compounds were formulated using a solution containing 75% v/v water and 25% v/v DMSO. Different concentrations of formulated compounds were sprayed onto the insect diet at 5 μl, using a custom built micro atomizer, at two replications.
After application, microtiter plates were incubated at about 25±1° C. and about 75±5% relative humidity for 5 days. Egg and larval mortality was then visually assessed.

O=c1c(-c2cc(Cl)cc(Cl)c2)c([O-])n2c3c(ccc[n+]13)CCC2c1cnc(Cl)s1 (stereo not drawn) [C-10]
> 75%: mortality at 2500 ppm [1] | mortality at 2500 ppm [2]

O=c1c(-c2ccccc2)c([O-])[n+]2c3n1CCCC3CC2c1cnc(Cl)s1 (stereo not drawn) [C-3]
> 75%: mortality at 2500 ppm [3] | mortality at 500 ppm [4] | mortality at 500 ppm [5] | mortality at 500 ppm [6] | mortality at 2500 ppm [2]

COc1ccc(-c2c([O-])n3c4c(ccc[n+]4c2=O)CCC3c2cnc(Cl)s2)cc1 (stereo not drawn) [C-11]
> 75%: mortality at 2500 ppm [3] | mortality at 2500 ppm [1] | mortality at 2500 ppm [2]

O=c1c(-c2ccccc2)c([O-])[n+]2c3n1CCCN3CCC2c1cnc(Cl)s1 (stereo not drawn) [C-7]
> 75%: mortality at 2500 ppm [7] | mortality at 2500 ppm [3] | mortality at 500 ppm [4] | mortality at 500 ppm [5] | mortality at 500 ppm [6] | mortality at 2500 ppm [2]

O=c1c(-c2ccccc2)c([O-])[n+]2c3n1CCC3CCC2c1cnc(Cl)s1 (stereo not drawn) [C-2]
> 75%: mortality at 2500 ppm [3] | mortality at 500 ppm [4] | mortality at 500 ppm [5] | mortality at 500 ppm [6] | mortality at 2500 ppm [2]

O=c1c(-c2ccccc2)c([O-])[n+]2c3n1CCCC3CCC2c1cnc(Cl)s1 (stereo not drawn) [C-6]
> 75%: mortality at 2500 ppm [3] | mortality at 500 ppm [4] | mortality at 500 ppm [5] | mortality at 500 ppm [6] | mortality at 2500 ppm [2]

O=c1c(-c2ccccc2)c([O-])[n+]2c3n1CCN3CCC2c1cnc(Cl)s1 (stereo not drawn) [C-4]
> 75%: mortality at 2500 ppm [3] | mortality at 500 ppm [4] | mortality at 500 ppm [5]

O=c1c(-c2cccc(C(F)(F)F)c2)c([O-])n2c3c(ccc[n+]13)CCC2c1cnc(Cl)s1 (stereo not drawn) [C-9]
> 75%: mortality at 2500 ppm [3] | mortality at 2500 ppm [1] | mortality at 2500 ppm [2]

O=c1c(-c2ccccc2)c([O-])[n+]2c3c(cccn13)CCC2c1cnc(Cl)s1 (stereo not drawn) [C-8]
> 75%: mortality at 2500 ppm [7] | mortality at 2500 ppm [3] | mortality at 500 ppm [4] | mortality at 500 ppm [5] | mortality at 500 ppm [6] | mortality at 2500 ppm [1] | mortality at 2500 ppm [2]
